Laboratory results as given in ChEMBL document CHEMBL4118176, “N-aryl-piperidine-4-carboxamides as a novel class of potent inhibitors of MALT1 proteolytic activity” (Bioorg Med Chem Lett, 2018).
In brackets after ≈: the same amount, converted by molar mass. Each block holds one molecule with its values, some of them ahead of it.

What was measured:
[1] = target: T1, Mucosa-associated lymphoid tissue lymphoma translocation protein 1 (Homo sapiens, UniProt Q9UDY8); assay: Inhibition of MALT1 (unknown origin) using Ac-Trp-Leu-Arg-Ser-Arg'Cys(PT14)-NH2 as substrate preincubated for 60 mins followed by substrate addition measured after 60 mins by fluorescence assay
T1 sequence (Q9UDY8 whole entry): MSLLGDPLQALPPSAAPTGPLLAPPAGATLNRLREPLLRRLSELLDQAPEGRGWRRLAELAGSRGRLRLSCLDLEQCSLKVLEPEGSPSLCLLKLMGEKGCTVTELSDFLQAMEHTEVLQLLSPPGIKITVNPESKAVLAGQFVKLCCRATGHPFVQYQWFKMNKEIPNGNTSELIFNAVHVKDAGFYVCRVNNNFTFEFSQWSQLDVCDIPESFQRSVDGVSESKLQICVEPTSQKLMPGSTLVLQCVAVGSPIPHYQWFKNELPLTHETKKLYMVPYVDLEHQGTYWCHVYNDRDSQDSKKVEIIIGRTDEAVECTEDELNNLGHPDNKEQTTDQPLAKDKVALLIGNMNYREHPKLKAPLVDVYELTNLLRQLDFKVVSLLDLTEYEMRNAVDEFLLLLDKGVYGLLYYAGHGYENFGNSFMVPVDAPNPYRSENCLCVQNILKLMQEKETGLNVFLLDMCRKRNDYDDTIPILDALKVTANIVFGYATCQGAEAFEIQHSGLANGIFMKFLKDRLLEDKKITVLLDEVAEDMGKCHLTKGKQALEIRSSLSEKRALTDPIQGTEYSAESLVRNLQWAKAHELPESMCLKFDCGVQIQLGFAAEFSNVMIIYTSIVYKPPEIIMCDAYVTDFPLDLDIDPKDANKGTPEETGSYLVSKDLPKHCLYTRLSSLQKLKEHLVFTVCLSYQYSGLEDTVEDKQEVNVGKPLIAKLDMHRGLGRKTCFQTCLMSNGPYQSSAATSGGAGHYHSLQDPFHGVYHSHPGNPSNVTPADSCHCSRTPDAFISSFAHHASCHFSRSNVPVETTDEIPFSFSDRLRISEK

[2] = target: Mucosa-associated lymphoid tissue lymphoma translocation protein 1 (Homo sapiens, UniProt Q9UDY8); assay: Inhibition of cIAP2 fused MALT1 (unknown origin) expressed in HEK293 cells assessed as suppression of NF-kB activation after 24 hrs by luciferase reporter gene assay; assay type: cell-based
[3] = Volume of distribution at steady state in rat at 1 mg/kg, iv or 3 mg/kg, po; assay type: ADME, organism-based; settings: in vivo, read-out: Vdss
[4] = Clearance in rat liver microsomes; assay type: ADME, microsome; settings: read-out: CLH
[5] = Clearance in rat at 1 mg/kg, iv or 3 mg/kg, po; assay type: ADME, organism-based; settings: in vivo
[6] = Half life in rat at 1 mg/kg, iv or 3 mg/kg, po; assay type: ADME, organism-based; settings: in vivo
[7] = AUC in rat at 1 mg/kg, iv; assay type: ADME, organism-based; settings: in vivo
[8] = Solubility of the compound in buffer at pH 6.8; assay type: physicochemical
[9] = Solubility of the compound in buffer at pH 4; assay type: physicochemical
[10] = Clearance in rat hepatocytes assessed per 10^6 cells; assay type: ADME, cell-based, Hepatocyte
[11] = Oral bioavailability in rat at 3 mg/kg; assay type: ADME, organism-based; settings: in vivo
[12] = target: T1, Mucosa-associated lymphoid tissue lymphoma translocation protein 1; assay: Inhibition of MALT1 in human OCI-LY3 cells assessed a decrease in BCL10 cleavage after 24 hrs by ELISA; assay type: cell-based
[13] = target: T1, Mucosa-associated lymphoid tissue lymphoma translocation protein 1; assay: Inhibition of MALT1 in PMA-stimulated human Jurkat T cells assessed as reduction in IL2 level pretreated for 30 mins followed by PMA-stimulation measured after 5.5 hr by bioluminescence assay; assay type: cell-based
BJAB = assay: Antiproliferative activity against human BJAB cells after 72 hrs by CellTiterGlo assay; assay type: functional, cell-based
OCI-Ly3 = assay: Antiproliferative activity against human OCI-LY3 cells after 72 hrs by CellTiterGlo assay; assay type: functional, cell-based; settings: OCI-Ly3, 72 h
[14] = Apparent permeability from apical to basolateral side in human Caco2 cells; assay type: ADME, cell-based; settings: Caco-2

SMILES: Cc1ccc(NC(=O)C2CCN(c3ncccc3Cl)CC2)cc1Cl
IC50 [2]: 3700 nM
IC50 [1]: 54 nM
Vd [3]: 21.4 L/kg
CLint scaled [4]: 81 mL/min/kg
clearance [5]: 320 mL/min/kg
half-life [6]: 120 min
AUC [7]: 0.143 µM·h
solubility [8]: < 4 µM
solubility [9]: < 4 µM
CLH [10]: 173 µL/min/1e6 cells

SMILES: Cc1nc(C)n(-c2ccc(NC(=O)C3CCN(c4ncccc4[N+](=O)[O-])CC3)cc2Cl)n1
IC50 [2]: 640 nM
IC50 [1]: 184 nM
Vd [3]: 1.1 L/kg
CLint scaled [4]: 29 mL/min/kg
clearance [5]: 43 mL/min/kg
bioavailability [11]: 46%
half-life [6]: 30 min
AUC [7]: 0.914 µM·h
solubility [8]: 7 µM (≈ 3.19 µg/mL)
solubility [9]: 170 µM (≈ 77.5 µg/mL)
CLH [10]: 4.1 µL/min/1e6 cells

SMILES: O=C(Nc1ccc(F)c(Cl)c1)C1CCN(c2ccccc2)CC1
IC50 [2]: 3200 nM
IC50 [1]: 820 nM
EC50 [12]: 9200 nM

SMILES: COc1ncc(NC(=O)C2CCN(c3ncccc3Cl)CC2)cc1Cl
IC50 [2]: 190 nM
IC50 [1]: 13 nM
EC50 [12]: 450 nM

SMILES: Nc1cccnc1N1CCC(C(=O)Nc2cnc(-n3nccn3)c(Cl)c2)CC1
IC50 [2]: 90 nM
IC50 [1]: 7 nM
IC50 [13]: 80 nM
EC50 [12]: 560 nM
EC50 (BJAB): > 10000 nM
EC50 (OCI-Ly3): 3600 nM

SMILES: CNC(=O)c1ncn(-c2ccc(NC(=O)C3CCN(c4ncccc4Cl)CC3)cc2Cl)n1
IC50 [2]: 140 nM
IC50 [1]: 21 nM
Vd [3]: 7.5 L/kg
CLint scaled [4]: 59.8 mL/min/kg
clearance [5]: 282 mL/min/kg
EC50 [12]: 210 nM
Papp A→B [14]: 8.2 ×10⁻⁶ cm/s
half-life [6]: 36 min
AUC [7]: 0.125 µM·h
solubility [8]: < 4 µM
solubility [9]: 8 µM (≈ 3.79 µg/mL)
CLH [10]: 228 µL/min/1e6 cells

SMILES: CC(C)CN1CCC(C(=O)Nc2ccc(F)c(Cl)c2)CC1
IC50 [1]: > 100000 nM

SMILES: N#Cc1ccnc(N2CCC(C(=O)Nc3ccc(F)c(Cl)c3)CC2)c1
IC50 [1]: 9000 nM

SMILES: O=C(Nc1ccc(F)c(Cl)c1)C1CCN(Cc2ccc(F)cc2)CC1
IC50 [1]: > 100000 nM

SMILES: O=C(Nc1cccc(Cl)c1)C1CCN(c2ncccc2Cl)CC1
IC50 [2]: 1590 nM
IC50 [1]: 210 nM
EC50 [12]: 3400 nM

SMILES: O=C(Nc1cnc(-n2nccn2)c(Cl)c1)C1CCN(c2ncccc2Cl)CC1
IC50 [2]: 90 nM
IC50 [1]: 4 nM
IC50 [13]: 50 nM
EC50 [12]: 230 nM
EC50 (BJAB): > 10000 nM
EC50 (OCI-Ly3): 1400 nM

SMILES: O=C(Nc1ccccc1)C1CCN(c2ncccc2Cl)CC1
IC50 [1]: 4700 nM

SMILES: O=C(NC1CCCCC1)C1CCN(c2ncccc2Cl)CC1
IC50 [1]: > 100000 nM

SMILES: Cc1cn(-c2cc(NC(=O)C3CCN(c4ncccc4Cl)CC3)cc(C(F)(F)F)c2)cn1
IC50 [2]: 3000 nM
IC50 [1]: 340 nM
Vd [3]: 8.7 L/kg
CLint scaled [4]: 60.2 mL/min/kg
clearance [5]: 56 mL/min/kg
bioavailability [11]: 46%
Papp A→B [14]: 7.2 ×10⁻⁶ cm/s
half-life [6]: 144 min
AUC [7]: 0.623 µM·h
solubility [8]: 16 µM (≈ 7.42 µg/mL)
solubility [9]: 690 µM (≈ 320 µg/mL)
CLH [10]: 18.8 µL/min/1e6 cells

The next lines start with results.

IC50 [1]: 1900 nM
SMILES: O=C(Nc1ccc(F)c(Cl)c1)C1CCN(c2ccccn2)CC1

IC50 [2]: 1350 nM
IC50 [1]: 28 nM
EC50 [12]: 1500 nM
SMILES: O=C(Nc1ccc(F)c(Cl)c1)C1CCN(c2ncccc2Cl)CC1

IC50 [2]: 420 nM
IC50 [1]: 100 nM
EC50 [12]: 540 nM
SMILES: Nc1cccnc1N1CCC(C(=O)Nc2ccc(F)c(Cl)c2)CC1

IC50 [2]: 290 nM
IC50 [1]: 100 nM
EC50 [12]: 400 nM
SMILES: O=C(Nc1ccc(F)c(Cl)c1)C1CCN(c2nccnc2Cl)CC1

IC50 [2]: 110 nM
IC50 [1]: 35 nM
Vd [3]: 4.1 L/kg
CLint scaled [4]: 102 mL/min/kg
clearance [5]: 259 mL/min/kg
EC50 [12]: 190 nM
Papp A→B [14]: 19.4 ×10⁻⁶ cm/s
EC50 (OCI-Ly3): 2000 nM
half-life [6]: 18 min
AUC [7]: 0.161 µM·h
solubility [8]: < 4 µM
solubility [9]: 48 µM (≈ 19.1 µg/mL)
SMILES: Nc1cccnc1N1CCC(C(=O)Nc2ccc(-n3nccn3)c(Cl)c2)CC1
EC50 (BJAB): > 10000 nM

IC50 [2]: 2700 nM
IC50 [1]: 420 nM
EC50 [12]: 2100 nM
SMILES: N#Cc1cccnc1N1CCC(C(=O)Nc2ccc(F)c(Cl)c2)CC1

IC50 [2]: 3100 nM
IC50 [1]: 1620 nM
EC50 [12]: 5400 nM
SMILES: O=C(Nc1ccc(F)c(Cl)c1)C1CCN(c2ncccn2)CC1
